#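 48-hour exposure; five concentrations; linearly interpolated endpoints. GI50 is the concentration that inhibits growth by half. TGI is the concentration that stops growth completely.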
# Legend:
# Assay in all cases: growth of human tumour cells (NCI), 48 h
# NCI-H460 lung = test system: NCI-H460 lung
# NCI-H522 lung = test system: NCI-H522 lung
# NCI/ADR-RES ovarian = test system: NCI/ADR-RES ovarian
# OVCAR-3 ovarian = test system: OVCAR-3 ovarian
# OVCAR-4 ovarian = test system: OVCAR-4 ovarian
# OVCAR-5 ovarian = test system: OVCAR-5 ovarian
# OVCAR-8 ovarian = test system: OVCAR-8 ovarian
# PC-3 prostate = test system: PC-3 prostate
# RPMI-8226 leukemia = test system: RPMI-8226 leukemia
# RXF 393 renal = test system: RXF 393 renal
# SF-268 CNS = test system: SF-268 CNS
# SF-295 CNS = test system: SF-295 CNS
# SF-539 CNS = test system: SF-539 CNS
# SK-MEL-2 melanoma = test system: SK-MEL-2 melanoma
# SK-MEL-28 melanoma = test system: SK-MEL-28 melanoma
# SK-MEL-5 melanoma = test system: SK-MEL-5 melanoma
# SK-OV-3 ovarian = test system: SK-OV-3 ovarian
# SN12C renal = test system: SN12C renal
# SNB-19 CNS = test system: SNB-19 CNS
# SNB-75 CNS = test system: SNB-75 CNS
# SR leukemia = test system: SR leukemia
# SW-620 colon = test system: SW-620 colon
# T-47D breast = test system: T-47D breast
# TK-10 renal = test system: TK-10 renal
# U251 CNS = test system: U251 CNS
# UACC-257 melanoma = test system: UACC-257 melanoma
# UACC-62 melanoma = test system: UACC-62 melanoma
# UO-31 renal = test system: UO-31 renal
structure (smiles),measurement,setting,value
COc1ccc(/C=C/C(=O)c2cccc(B(O)O)c2)cc1O,GI50,NCI-H460 lung,3.11 µM
same,TGI,NCI-H460 lung,11.5 µM
same,GI50,NCI-H522 lung,3.33 µM
same,TGI,NCI-H522 lung,13.5 µM
same,GI50,NCI/ADR-RES ovarian,3.09 µM
same,TGI,NCI/ADR-RES ovarian,28.6 µM
same,GI50,OVCAR-3 ovarian,3.44 µM
same,TGI,OVCAR-3 ovarian,10.9 µM
same,GI50,OVCAR-4 ovarian,7.91 µM
same,TGI,OVCAR-4 ovarian,21 µM
same,GI50,OVCAR-5 ovarian,9.25 µM
same,TGI,OVCAR-5 ovarian,31.6 µM
same,GI50,OVCAR-8 ovarian,3.82 µM
same,TGI,OVCAR-8 ovarian,> 100 µM
same,GI50,PC-3 prostate,6.18 µM
same,TGI,PC-3 prostate,32.9 µM
same,GI50,RPMI-8226 leukemia,3.39 µM
same,TGI,RPMI-8226 leukemia,33.3 µM
same,GI50,RXF 393 renal,2.8 µM
same,TGI,RXF 393 renal,11.4 µM
same,GI50,SF-268 CNS,3.46 µM
same,TGI,SF-268 CNS,19.9 µM
same,GI50,SF-295 CNS,3.17 µM
same,TGI,SF-295 CNS,13.2 µM
same,GI50,SF-539 CNS,2.4 µM
same,TGI,SF-539 CNS,8.46 µM
same,GI50,SK-MEL-2 melanoma,15.6 µM
same,TGI,SK-MEL-2 melanoma,58.9 µM
same,GI50,SK-MEL-28 melanoma,6.72 µM
same,TGI,SK-MEL-28 melanoma,> 100 µM
same,GI50,SK-MEL-5 melanoma,3.76 µM
same,TGI,SK-MEL-5 melanoma,14.9 µM
same,GI50,SK-OV-3 ovarian,6.14 µM
same,TGI,SK-OV-3 ovarian,> 100 µM
same,GI50,SN12C renal,3.26 µM
same,TGI,SN12C renal,25.7 µM
same,GI50,SNB-19 CNS,5.1 µM
same,TGI,SNB-19 CNS,27.3 µM
same,GI50,SNB-75 CNS,2.74 µM
same,TGI,SNB-75 CNS,12.2 µM
same,GI50,SR leukemia,2.56 µM
same,TGI,SR leukemia,30.3 µM
same,GI50,SW-620 colon,2.79 µM
same,TGI,SW-620 colon,11.5 µM
same,GI50,T-47D breast,3.01 µM
same,TGI,T-47D breast,16 µM
same,GI50,TK-10 renal,4.4 µM
same,TGI,TK-10 renal,24.1 µM
same,GI50,U251 CNS,3.41 µM
same,TGI,U251 CNS,13.2 µM
same,GI50,UACC-257 melanoma,10.6 µM
same,TGI,UACC-257 melanoma,30.9 µM
same,GI50,UACC-62 melanoma,3.83 µM
same,TGI,UACC-62 melanoma,17.3 µM
same,GI50,UO-31 renal,3.63 µM
same,TGI,UO-31 renal,17.4 µM
